A short description of assay [1]: A375 melanoma cell cytotoxicity, dose response, counter-screen for MITF inhibitor project, CellTiter-Glo luminescence, dry powder, set 7 (AID 624490). The settings on record: A-375. The format is functional, cell-based. In general terms: A counterscreen serves to expose hits that act by an unwanted route or on another target.
For another assay, the target named is T1, Aminopeptidase N (Plasmodium falciparum FcB1/Columbia, UniProt O96935).
T1 sequence (O96935 whole entry): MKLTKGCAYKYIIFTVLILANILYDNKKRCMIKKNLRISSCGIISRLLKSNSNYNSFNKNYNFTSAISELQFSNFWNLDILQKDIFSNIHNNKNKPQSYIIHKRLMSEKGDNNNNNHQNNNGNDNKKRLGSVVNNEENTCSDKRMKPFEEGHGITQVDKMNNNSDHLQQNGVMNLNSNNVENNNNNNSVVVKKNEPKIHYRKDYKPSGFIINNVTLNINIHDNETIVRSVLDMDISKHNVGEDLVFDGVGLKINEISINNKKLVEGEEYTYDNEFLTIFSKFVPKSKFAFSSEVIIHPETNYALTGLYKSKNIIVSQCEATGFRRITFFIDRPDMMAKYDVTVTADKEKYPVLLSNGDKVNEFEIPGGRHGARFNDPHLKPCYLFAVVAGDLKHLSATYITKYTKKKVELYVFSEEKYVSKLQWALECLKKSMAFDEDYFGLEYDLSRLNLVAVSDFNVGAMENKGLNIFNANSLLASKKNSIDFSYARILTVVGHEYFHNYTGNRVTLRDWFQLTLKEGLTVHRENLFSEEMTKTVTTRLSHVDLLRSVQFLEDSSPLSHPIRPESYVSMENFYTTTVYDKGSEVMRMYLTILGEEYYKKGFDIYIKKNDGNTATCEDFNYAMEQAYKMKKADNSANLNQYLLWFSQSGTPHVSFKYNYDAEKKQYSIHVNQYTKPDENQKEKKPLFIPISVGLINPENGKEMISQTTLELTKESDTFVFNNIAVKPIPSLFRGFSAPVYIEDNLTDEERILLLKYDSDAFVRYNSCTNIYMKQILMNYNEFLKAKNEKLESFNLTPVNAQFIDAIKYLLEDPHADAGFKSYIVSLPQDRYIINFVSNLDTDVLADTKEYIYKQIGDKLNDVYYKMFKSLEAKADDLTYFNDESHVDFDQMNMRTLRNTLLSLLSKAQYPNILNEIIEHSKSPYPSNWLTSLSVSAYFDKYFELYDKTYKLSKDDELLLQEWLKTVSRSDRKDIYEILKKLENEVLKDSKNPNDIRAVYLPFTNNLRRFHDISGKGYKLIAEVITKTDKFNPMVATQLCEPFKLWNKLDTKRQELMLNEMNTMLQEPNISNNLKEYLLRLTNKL
The assay is described as follows: P. falciparum M1AAP inhibitors, biochemical, fluorogenic H-Leu-NHMec substrate, 1536-well (AID 1445). Also on record: species or system Plasmodium falciparum 3D7, 3D7.

Assay [2] addresses T2, Alkaline phosphatase, tissue-nonspecific isozyme (Homo sapiens, UniProt P05186).
T2 sequence (P05186 whole entry): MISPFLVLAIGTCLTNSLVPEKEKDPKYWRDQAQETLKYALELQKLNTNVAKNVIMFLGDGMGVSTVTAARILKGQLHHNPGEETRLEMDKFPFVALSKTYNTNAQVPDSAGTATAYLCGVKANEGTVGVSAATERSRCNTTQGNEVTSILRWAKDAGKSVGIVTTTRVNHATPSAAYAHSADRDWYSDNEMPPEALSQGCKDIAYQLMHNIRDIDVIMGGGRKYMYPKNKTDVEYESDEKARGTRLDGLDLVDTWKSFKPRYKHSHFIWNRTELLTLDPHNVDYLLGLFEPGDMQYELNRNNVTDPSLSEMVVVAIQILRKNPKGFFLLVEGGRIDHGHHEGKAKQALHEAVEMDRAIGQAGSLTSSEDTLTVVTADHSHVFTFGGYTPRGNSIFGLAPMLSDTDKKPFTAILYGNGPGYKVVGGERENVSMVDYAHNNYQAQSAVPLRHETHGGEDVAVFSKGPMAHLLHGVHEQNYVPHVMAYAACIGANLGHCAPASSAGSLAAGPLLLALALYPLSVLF
The assay is described as follows: TNAP enzyme activators, dose response, selectivity assay for mouse IAP activator project, biochemical, TNAP isozyme, mouse IAP uHTS hits (AID 488880). The format is functional.

The target in assay [3] is Dual specificity protein phosphatase 3 (Homo sapiens, UniProt P51452). The assay is described as follows: VHR1 phosphatase inhibitors, biochemical (AID 1878).
Chain of Dual specificity protein phosphatase 3 (P51452 whole entry): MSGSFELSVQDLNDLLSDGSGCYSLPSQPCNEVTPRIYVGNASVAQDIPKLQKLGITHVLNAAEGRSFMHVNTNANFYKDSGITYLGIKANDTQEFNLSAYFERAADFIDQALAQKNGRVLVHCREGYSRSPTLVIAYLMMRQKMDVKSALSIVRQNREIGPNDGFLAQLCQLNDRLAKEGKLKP
The target in a further assay is T3, Orexin receptor type 2 (Homo sapiens, UniProt O43614).
T3 sequence (O43614 whole entry): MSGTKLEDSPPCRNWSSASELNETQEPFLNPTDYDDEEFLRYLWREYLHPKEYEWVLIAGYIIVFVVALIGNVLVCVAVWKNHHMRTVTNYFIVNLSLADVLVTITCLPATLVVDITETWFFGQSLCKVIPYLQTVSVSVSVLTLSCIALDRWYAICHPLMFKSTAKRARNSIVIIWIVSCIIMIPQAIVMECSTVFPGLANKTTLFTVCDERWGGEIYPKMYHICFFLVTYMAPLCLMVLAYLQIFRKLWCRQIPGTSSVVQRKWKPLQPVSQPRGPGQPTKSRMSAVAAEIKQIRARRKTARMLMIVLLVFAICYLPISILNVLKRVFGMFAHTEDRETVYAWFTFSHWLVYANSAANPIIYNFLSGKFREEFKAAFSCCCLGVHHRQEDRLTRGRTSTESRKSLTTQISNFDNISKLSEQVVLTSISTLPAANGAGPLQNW
The assay is described as follows: Counterscreen assay for antagonists of the orexin 1 receptor (OX1R; HCRTR1): Fluorescence-based cell-based dose response assay for antagonists of the orexin 2 receptor (OX2R; HCRTR2), run by assay provider. The format is functional.

Assay [4] addresses Homeodomain-interacting protein kinase 4 (Homo sapiens, UniProt Q8NE63). The format is functional.
A further assay addresses Misshapen-like kinase 1 (Homo sapiens, UniProt Q8N4C8). The format is functional.
Assay [5] concerns the target Testis-specific serine/threonine-protein kinase 1 (Homo sapiens, UniProt Q9BXA7). The format is functional.
Assay [6] concerns the target Tyrosine-protein kinase Lyn (Homo sapiens, UniProt P07948). The format is functional.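 Further: lyn as one member of a kinase panel.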
In assay [7] the target is 3-phosphoinositide-dependent protein kinase 1 (Homo sapiens, UniProt O15530). The format is functional.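 Further: value comes from the Navigating the Kinome panel, PDPK1 member.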
Chain of 3-phosphoinositide-dependent protein kinase 1 (O15530 whole entry): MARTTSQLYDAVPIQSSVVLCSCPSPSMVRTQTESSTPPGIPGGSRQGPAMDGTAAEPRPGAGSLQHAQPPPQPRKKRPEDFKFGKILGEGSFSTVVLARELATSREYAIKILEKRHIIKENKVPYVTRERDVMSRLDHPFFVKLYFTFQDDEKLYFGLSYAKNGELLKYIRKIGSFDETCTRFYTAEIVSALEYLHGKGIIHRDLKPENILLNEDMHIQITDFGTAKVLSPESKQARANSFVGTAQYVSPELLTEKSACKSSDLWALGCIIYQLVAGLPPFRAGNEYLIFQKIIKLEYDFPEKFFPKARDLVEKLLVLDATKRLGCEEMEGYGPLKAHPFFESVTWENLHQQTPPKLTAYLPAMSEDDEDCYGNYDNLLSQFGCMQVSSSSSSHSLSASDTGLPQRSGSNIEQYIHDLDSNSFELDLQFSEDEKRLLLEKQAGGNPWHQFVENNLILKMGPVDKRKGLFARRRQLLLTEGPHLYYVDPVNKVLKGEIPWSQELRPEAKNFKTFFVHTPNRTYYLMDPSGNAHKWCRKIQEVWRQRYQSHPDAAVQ
In assay [8] the target is Serine/threonine-protein kinase DCLK1 (Homo sapiens, UniProt O15075). The format is functional.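 Further: affinity for DCLK1 (listed as DCAMKL1) measured as one member of a kinome-wide kinase profiling panel.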
Chain of Serine/threonine-protein kinase DCLK1 (O15075 whole entry): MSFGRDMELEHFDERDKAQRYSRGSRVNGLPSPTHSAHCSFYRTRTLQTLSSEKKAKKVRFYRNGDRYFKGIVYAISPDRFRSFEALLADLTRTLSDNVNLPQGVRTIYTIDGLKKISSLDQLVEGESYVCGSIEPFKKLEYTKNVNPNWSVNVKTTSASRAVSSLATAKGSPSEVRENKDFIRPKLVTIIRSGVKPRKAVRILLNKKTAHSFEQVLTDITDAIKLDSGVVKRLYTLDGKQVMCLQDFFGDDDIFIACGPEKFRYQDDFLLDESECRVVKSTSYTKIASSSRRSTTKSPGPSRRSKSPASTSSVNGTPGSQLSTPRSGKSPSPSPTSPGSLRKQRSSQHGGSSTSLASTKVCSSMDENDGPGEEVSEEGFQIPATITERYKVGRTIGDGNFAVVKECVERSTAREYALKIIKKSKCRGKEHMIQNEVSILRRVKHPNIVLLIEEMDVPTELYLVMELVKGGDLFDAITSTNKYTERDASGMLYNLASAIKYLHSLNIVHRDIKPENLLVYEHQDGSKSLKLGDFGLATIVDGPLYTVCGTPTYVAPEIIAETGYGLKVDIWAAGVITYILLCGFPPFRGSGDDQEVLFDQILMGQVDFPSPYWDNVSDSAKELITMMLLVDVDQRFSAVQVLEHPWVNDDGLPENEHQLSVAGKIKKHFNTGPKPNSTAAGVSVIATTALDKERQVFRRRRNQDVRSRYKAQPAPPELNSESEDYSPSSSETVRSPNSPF
In assay [9] the target is Mitogen-activated protein kinase 9 (Homo sapiens, UniProt P45984). The format is functional.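 Further: value from a kinome panel profiling assay, MAPK9 panel entry.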
Chain of Mitogen-activated protein kinase 9 (P45984 whole entry): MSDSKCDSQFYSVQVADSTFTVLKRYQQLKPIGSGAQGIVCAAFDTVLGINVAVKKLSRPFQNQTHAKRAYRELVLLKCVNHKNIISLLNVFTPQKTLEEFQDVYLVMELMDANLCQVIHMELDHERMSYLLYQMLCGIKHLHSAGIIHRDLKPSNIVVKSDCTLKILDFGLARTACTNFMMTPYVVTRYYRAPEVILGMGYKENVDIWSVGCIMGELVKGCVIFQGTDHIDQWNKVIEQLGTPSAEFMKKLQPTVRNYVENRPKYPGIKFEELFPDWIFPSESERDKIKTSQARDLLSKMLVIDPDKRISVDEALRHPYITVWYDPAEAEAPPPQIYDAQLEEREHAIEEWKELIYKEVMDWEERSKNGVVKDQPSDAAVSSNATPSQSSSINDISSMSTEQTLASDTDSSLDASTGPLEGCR
Assay [10] deals with Serine/threonine-protein kinase pim-1 (Homo sapiens, UniProt P11309). The format is functional.
Chain of Serine/threonine-protein kinase pim-1 (P11309 whole entry): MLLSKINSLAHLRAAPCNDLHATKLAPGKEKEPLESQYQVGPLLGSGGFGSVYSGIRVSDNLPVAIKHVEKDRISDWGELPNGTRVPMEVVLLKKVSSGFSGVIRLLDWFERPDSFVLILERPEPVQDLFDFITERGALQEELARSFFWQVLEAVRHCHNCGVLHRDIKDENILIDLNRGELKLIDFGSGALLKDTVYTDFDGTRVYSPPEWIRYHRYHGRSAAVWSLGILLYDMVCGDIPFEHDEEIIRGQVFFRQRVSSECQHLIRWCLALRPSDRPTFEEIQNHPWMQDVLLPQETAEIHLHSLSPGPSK
The target of assay [11] is RAC-gamma serine/threonine-protein kinase (Homo sapiens, UniProt Q9Y243). The format is functional.
Chain of RAC-gamma serine/threonine-protein kinase (Q9Y243 whole entry): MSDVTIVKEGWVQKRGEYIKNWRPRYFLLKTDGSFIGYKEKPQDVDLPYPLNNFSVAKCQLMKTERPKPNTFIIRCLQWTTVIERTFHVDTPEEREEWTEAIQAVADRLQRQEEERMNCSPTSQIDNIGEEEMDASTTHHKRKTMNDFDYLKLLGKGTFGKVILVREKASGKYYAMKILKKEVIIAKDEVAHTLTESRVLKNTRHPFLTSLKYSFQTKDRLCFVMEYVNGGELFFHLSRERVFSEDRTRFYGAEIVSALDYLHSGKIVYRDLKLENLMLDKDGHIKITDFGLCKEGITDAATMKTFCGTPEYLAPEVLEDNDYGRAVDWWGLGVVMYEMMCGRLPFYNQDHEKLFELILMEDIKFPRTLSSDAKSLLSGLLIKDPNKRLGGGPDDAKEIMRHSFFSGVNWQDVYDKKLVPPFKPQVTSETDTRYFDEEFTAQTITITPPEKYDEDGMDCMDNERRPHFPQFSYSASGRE
Assay [12] deals with Glycogen synthase kinase-3 beta (Homo sapiens, UniProt P49841). The format is functional.
Chain of Glycogen synthase kinase-3 beta (P49841 whole entry): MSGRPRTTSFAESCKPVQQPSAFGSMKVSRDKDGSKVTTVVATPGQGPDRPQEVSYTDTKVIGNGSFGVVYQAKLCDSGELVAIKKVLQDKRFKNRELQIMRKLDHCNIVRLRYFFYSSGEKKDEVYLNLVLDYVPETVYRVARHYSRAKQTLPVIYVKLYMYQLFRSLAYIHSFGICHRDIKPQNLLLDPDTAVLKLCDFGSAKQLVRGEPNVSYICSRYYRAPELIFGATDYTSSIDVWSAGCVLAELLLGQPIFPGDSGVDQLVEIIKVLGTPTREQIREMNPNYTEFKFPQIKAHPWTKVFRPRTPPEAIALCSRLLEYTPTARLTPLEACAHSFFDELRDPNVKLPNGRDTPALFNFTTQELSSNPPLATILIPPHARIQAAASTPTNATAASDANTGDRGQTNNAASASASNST
In assay [13] the target is Mitogen-activated protein kinase 1 (Homo sapiens, UniProt P28482). The format is functional.

SMILES strings stand for the structures. Activity calls are given as the source filed them. A value given as a limit tells only on which side of the number the result lay.

Chain of Misshapen-like kinase 1 (Q8N4C8 whole entry): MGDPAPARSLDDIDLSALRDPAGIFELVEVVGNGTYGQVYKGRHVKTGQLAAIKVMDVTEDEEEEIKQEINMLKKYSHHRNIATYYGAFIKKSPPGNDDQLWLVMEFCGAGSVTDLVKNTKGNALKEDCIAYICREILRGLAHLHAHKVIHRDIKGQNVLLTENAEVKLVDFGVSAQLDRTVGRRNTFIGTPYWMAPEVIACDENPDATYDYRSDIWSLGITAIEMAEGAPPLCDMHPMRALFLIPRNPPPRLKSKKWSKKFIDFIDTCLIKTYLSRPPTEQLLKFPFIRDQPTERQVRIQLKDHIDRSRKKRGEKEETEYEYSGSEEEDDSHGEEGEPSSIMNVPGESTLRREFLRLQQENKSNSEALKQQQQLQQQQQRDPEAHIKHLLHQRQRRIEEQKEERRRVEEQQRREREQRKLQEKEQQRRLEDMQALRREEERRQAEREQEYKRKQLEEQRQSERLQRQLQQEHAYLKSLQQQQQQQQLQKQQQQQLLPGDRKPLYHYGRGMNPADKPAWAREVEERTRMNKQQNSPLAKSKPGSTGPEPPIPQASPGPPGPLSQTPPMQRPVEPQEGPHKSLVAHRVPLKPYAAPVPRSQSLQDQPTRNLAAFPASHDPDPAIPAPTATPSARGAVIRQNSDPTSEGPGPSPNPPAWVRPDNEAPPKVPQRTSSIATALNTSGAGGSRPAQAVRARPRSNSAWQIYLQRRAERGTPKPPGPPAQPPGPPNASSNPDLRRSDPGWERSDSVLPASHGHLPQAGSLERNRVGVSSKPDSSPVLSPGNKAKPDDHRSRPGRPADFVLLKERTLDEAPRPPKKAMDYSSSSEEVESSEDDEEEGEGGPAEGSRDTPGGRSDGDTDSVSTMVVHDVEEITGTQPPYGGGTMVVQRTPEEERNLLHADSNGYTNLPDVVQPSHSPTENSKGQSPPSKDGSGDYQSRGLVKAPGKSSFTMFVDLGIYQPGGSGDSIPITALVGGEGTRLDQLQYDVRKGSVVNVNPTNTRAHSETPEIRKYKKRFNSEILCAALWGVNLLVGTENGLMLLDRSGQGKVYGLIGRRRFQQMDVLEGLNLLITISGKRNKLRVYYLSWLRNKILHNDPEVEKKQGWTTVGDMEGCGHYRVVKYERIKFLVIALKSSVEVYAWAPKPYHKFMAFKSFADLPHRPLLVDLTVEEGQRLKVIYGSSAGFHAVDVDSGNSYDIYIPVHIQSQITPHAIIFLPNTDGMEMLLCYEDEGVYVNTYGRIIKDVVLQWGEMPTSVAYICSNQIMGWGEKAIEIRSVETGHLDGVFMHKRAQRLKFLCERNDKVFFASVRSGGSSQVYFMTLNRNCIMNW
Chain of Testis-specific serine/threonine-protein kinase 1 (Q9BXA7 whole entry): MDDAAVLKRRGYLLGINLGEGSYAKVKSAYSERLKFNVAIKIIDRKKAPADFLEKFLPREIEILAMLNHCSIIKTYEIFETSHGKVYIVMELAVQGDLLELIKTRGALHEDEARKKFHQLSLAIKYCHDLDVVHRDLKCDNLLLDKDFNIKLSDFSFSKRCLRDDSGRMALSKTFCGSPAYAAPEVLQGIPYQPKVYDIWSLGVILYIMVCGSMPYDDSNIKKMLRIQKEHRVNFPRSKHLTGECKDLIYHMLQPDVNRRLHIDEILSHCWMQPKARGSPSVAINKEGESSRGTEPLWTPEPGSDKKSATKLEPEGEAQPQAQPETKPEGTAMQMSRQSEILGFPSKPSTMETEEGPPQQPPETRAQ

As for `C=CCNC1=C(Cl)C(=O)c2ccccc2C1=O`, the AC50 in assay [1] is 53500 nM (active).
In the case of `CS(=O)(=O)c1ccc2c(c1)SC1=NC(=O)/C(=C/c3ccc(O)c(O)c3)C(=N)N12`, the 50% inhibitory concentration (IC50) on Aminopeptidase N is 51200 nM (active); in assay [3], 4570 nM (active). Besides, the 50% effective concentration (EC50) in assay [2] was 77500 nM (active).
`CN(C)c1ccc(-c2nnc(-c3cccs3)o2)cc1`: the IC50 on Orexin receptor type 2 was > 88800 nM (inactive).
As to `COc1ccc(C(=O)Nc2n[nH]c3ccc(-c4cn(Cc5ccccc5)nn4)cc23)cc1OC`, the Ki in [4] was 1000 nM (active); at Misshapen-like kinase 1, 251 nM (active); in assay [5], > 1580 nM (inactive); in assay [6], 501 nM (active); in assay [7], 1000 nM (active); in assay [8], 5010 nM (active). Further, the inhibitory constant (Ki) in [9] is 251 nM (active); in assay [10], > 5010 nM (inactive); in assay [11] it was 1260 nM (active); in assay [12], > 100 nM (inactive); in [13] it was 100 nM (active).

The term AC50 denotes the concentration giving half of the maximal activity seen. Broadly, the IC50 is the concentration at which inhibition is half-maximal. For orientation: EC50 means the concentration that produces a half-maximal response. The Ki is the dissociation constant of the complex between target and ligand, obtained from inhibition or displacement.

The record behind these values is ChEMBL document CHEMBL1201862, “PubChem BioAssay data set” (2004).
